ChEMBL document CHEMBL1146964, “Factor VIIa inhibitors: improved pharmacokinetic parameters” (Bioorg Med Chem Lett, 2006)
pKi: −log10 of the molar value.

What was measured:
[1] = Mean residence time in iv dosed rat; assay type: ADME, organism-based; conditions: in vivo
[2] = Plasma clearance in iv dosed rat
[3] = molecular target: Coagulation factor VII/tissue factor (Homo sapiens, UniProt P08709); assay: Binding affinity to factor7a/TF complex; assay type: protein-complex assay
[4] = Bioavailability in sc dosed rat; assay type: ADME, organism-based; conditions: in vivo

Coagulation factor VII/tissue factor, sequence (P08709 61-212 limits assumed): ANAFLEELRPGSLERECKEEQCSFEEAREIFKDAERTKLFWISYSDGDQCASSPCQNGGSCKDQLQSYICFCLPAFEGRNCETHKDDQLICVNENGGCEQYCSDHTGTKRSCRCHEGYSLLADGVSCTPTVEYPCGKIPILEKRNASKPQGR
Coagulation factor VII/tissue factor, sequence (P08709 213-466 limits assumed): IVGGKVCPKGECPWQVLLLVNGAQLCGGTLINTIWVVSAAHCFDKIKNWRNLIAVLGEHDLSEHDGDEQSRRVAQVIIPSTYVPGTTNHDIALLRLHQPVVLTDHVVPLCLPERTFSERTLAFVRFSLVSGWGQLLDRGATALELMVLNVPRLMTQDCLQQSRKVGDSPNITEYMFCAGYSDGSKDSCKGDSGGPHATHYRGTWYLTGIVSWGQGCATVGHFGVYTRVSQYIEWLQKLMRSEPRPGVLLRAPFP
Coagulation factor VII/tissue factor, sequence (P13726 33-295 partner limits assumed): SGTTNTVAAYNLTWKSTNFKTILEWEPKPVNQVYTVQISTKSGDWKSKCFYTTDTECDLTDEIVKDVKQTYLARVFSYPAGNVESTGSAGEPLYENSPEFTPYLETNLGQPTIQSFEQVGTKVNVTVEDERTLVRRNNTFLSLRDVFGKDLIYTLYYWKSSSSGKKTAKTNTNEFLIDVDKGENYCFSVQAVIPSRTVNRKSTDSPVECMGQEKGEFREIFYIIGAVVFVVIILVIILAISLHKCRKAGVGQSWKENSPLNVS

Compound | MRT [1] | clearance [2] | pKi [3] | bioavailability [4]
N=C(N)c1ccc2[nH]c(-c3cc(CC(CC(=O)O)C(=O)O)cc(-c4cc(F)ccc4O)c3O)nc2c1 (centres undefined) | < 1 h | 2.6 mL/min/kg | 8.40 | 
N=C(N)c1ccc2[nH]c(-c3cc(C(CC(=O)O)C(=O)O)cc(-c4cccc([N+](=O)[O-])c4)c3O)cc2c1 (centres undefined) | > 24 h |  | 9.00 | 
N=C(N)c1ccc2nc(-c3cc(C(CC(=O)O)CC(=O)O)cc(-c4cccc([N+](=O)[O-])c4)c3O)[nH]c2c1 |  |  | 7.44 | 
N=C(N)c1ccc2[nH]c(-c3cc(CC(=O)O)cc(-c4cc(F)ccc4O)c3O)nc2c1 | < 1 h | 8.1 mL/min/kg | 8.70 | 
N=C(N)c1ccc2nc(-c3cc(C(CCC(=O)O)C(=O)O)cc(-c4cccc([N+](=O)[O-])c4)c3O)[nH]c2c1 (centres undefined) | 5 h |  | 7.77 | 
N=C(N)c1ccc2[nH]c(-c3cc(CC(=O)O)cc(-c4cccc([N+](=O)[O-])c4)c3O)cc2c1 | < 1 h |  |  | 
N=C(N)c1ccc2[nH]c(-c3cc(C(CC(=O)O)C(=O)O)cc(-c4cc(F)ccc4O)c3O)nc2c1 (centres undefined) | 9 h |  | 8.40 | > 90%
N=C(N)c1ccc2nc(-c3cc(CC(=O)O)cc(-c4cccc([N+](=O)[O-])c4)c3O)[nH]c2c1 | < 1 h |  | 7.82 | 
N=C(N)c1ccc2nc(-c3cc(CC(C(=O)O)C(=O)O)cc(-c4cccc([N+](=O)[O-])c4)c3O)[nH]c2c1 | < 1 h |  | 7.68 | 
N=C(N)c1ccc2[nH]c(-c3cc(C(CC(=O)O)C(=O)O)cc(-c4cccc([N+](=O)[O-])c4)c3O)nc2c1 (centres undefined) | > 24 h | 0.04 mL/min/kg | 7.66 | 
N=C(N)c1ccc2[nH]c(-c3cc(C(CC(=O)O)CC(=O)O)cc(-c4cccc([N+](=O)[O-])c4)c3O)cc2c1 | 1.5 h |  | 7.89 | 
